pIC50: −log10 of the molar value. Counter-ions that a name gives are not always drawn.
Target: human LPA1 receptor (Homo sapiens (Human), UniProt Q92633)
Experiment: Beta-arrestin recruitment assay to determine IC50 values for human LPAR1
Assay type: cell-based
Conditions: antagonist mode, Tango EDG2-bla U2OS cells, LPA 18:1 500 nM final
Method in brief: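 Tango EDG2-bla U2OS cells: LPA-driven beta-arrestin/TEV protease recruitment releases Gal4-VP16, inducing beta-lactamase reporter read with live-cell substrate. Cells seeded 20 h at 37 °C beforehand. IC50 is antagonist concentration inhibiting 50% of maximal response.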

human LPA1 receptor, sequence (Q92633 whole entry): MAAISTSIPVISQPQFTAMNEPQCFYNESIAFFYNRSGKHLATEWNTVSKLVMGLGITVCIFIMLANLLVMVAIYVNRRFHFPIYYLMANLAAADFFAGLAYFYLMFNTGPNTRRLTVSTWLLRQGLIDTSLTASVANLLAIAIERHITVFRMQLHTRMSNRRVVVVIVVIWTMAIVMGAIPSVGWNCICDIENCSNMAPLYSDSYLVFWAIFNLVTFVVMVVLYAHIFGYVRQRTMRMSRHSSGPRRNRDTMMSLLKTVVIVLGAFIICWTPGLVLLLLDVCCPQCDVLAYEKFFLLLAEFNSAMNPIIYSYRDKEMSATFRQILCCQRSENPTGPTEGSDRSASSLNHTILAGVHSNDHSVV

Compound | pIC50
Cc1ccc(NC(=O)C2(c3ccccc3C(C)C)CN(C(=O)CCC(=O)C(F)(F)F)C2)c(OC(F)F)n1 [Ex 12-11, N-(2-(difluoromethoxy)-6-methylpyridin-3-yl)-3-(2-isopropylphenyl)-1-(5,5,5-trifluoro-4-oxopentanoyl)azetidine-3-carboxamide] | 8.15
Cc1ccc(NC(=O)C2(c3ccccc3C(C)C)CN(C(=O)C[C@@H](C)C(=O)O)C2)c(OC(F)F)n1 [Ex 12-80, (R)-4-(3-((2-(difluoromethoxy)-6-methylpyridin-3-yl)carbamoyl)-3-(2-isopropylphenyl)azetidin-1-yl)-2-methyl-4-oxobutanoic acid] | 7.74
Cc1ccc(NC(=O)C2(c3ccccc3C(C)C)CN(c3ccnc(C(=O)O)n3)C2)c(OC(F)F)n1 [Ex 18-11, 4-(3-((2-(difluoromethoxy)-6-methylpyridin-3-yl)carbamoyl)-3-(2-isopropylphenyl)azetidin-1-yl)pyrimidine-2-carboxylic acid] | 7.47
Cc1ccc(NC(=O)C2(c3ccccc3C(C)C)CN(c3noc(O)n3)C2)c(OC(F)F)n1 [Ex 21, N-(2-(difluoromethoxy)-6-methylpyridin-3-yl)-1-(5-hydroxy-1,2,4-oxadiazol-3-yl)-3-(2-isopropylphenyl)azetidine-3-carboxamide] | 7.92
Cc1ccc(NC(=O)C2(c3ccccc3C(C)C)CCN(C(=O)Cc3cc(O)n[nH]3)CC2)c(OC(F)F)n1 [Ex 12-25, N-(2-(difluoromethoxy)-6-methylpyridin-3-yl)-1-(2-(3-hydroxy-1H-pyrazol-5-yl)acetyl)-4-(2-isopropylphenyl)piperidine-4-carboxamide] | 7.82
Cc1ccc(NC(=O)C2(c3ccccc3C3=CCCC3)CN(C(=O)CC(C)(C)C(=O)O)C2)c(OC(F)F)n1 [Ex 31-4, 4-(3-(2-(cyclopent-1-en-1-yl)phenyl)-3-((2-(difluoromethoxy)-6-methylpyridin-3-yl)carbamoyl)azetidin-1-yl)-2,2-dimethyl-4-oxobutanoic acid] | 7.05
COC(=O)CC1(CN2CC(C(=O)Nc3ccc(C)nc3OC(F)F)(c3ccccc3C(C)C)C2)CC1 [Ex 11-67, Methyl 2-(1-((3-((2-(difluoromethoxy)-6-methylpyridin-3-yl)carbamoyl)-3-(2-isopropylphenyl)azetidin-1-yl)methyl)cyclopropyl)acetate] | 6.49
COC(=O)C1(CS(=O)(=O)N2CC(C(=O)Nc3ccc(C)nc3OC(F)F)(c3ccccc3C(C)C)C2)COC1 [Ex 13-15, methyl 3-(((3-((2-(difluoromethoxy)-6-methylpyridin-3-yl)carbamoyl)-3-(2-isopropylphenyl)azetidin-1-yl)sulfonyl)methyl)oxetane-3-carboxylate] | 6.55
CC(C)c1ccccc1C1(C(=O)Nc2ncc(Cl)cc2OC(F)F)CNC1 [Ex 72, N-(5-chloro-3-(difluoromethoxy)pyridin-2-yl)-3-(2-isopropylphenyl)azetidine-3-carboxamide] | 7.82
Cc1ccc(NC(=O)C2(c3ccccc3C(C)C)CN(Cc3nnn[nH]3)C2)c(OC(F)F)n1 [Ex 11-8, 1-((1H-tetrazol-5-yl)methyl)-N-(2-(difluoromethoxy)-6-methylpyridin-3-yl)-3-(2-isopropylphenyl)azetidine-3-carboxamide] | 7.26
Cc1ccc(NC(=O)C2(c3ccccc3C(C)C)CN(C(=O)CS(=O)(=O)O)C2)c(OC(F)F)n1 [Ex 12-3, 2-(3-((2-(difluoromethoxy)-6-methylpyridin-3-yl)carbamoyl)-3-(2-isopropylphenyl)azetidin-1-yl)-2-oxoethane-1-sulfonic acid] | 7.80
COC(=O)COC(=O)N1CC(C(=O)Nc2ncc(C)cc2OC(F)F)(c2ccccc2C(C)C)C1 [Ex 83-1, 2-methoxy-2-oxoethyl 3-((3-(difluoromethoxy)-5-methylpyridin-2-yl)carbamoyl)-3-(2-isopropylphenyl)azetidine-1-carboxylate] | 7.13
Cc1ccc(NC(=O)C2(c3ccccc3C(C)C)CN(C(=O)O[C@@H](C)C(=O)O)C2)c(OC(F)F)n1 [Ex 14-4, (S)-2-((3-((2-(difluoromethoxy)-6-methylpyridin-3-yl)carbamoyl)-3-(2-isopropylphenyl)azetidine-1-carbonyl)oxy)propanoic acid] | 7.80
COc1ccc(NC(=O)C2(c3ccccc3C(C)C)CNC2)c(OC)n1 [Ex 6, N-(2,6-dimethoxypyridin-3-yl)-3-(2-isopropylphenyl)azetidine-3-carboxamide hydrochloride] | 7.08
COC(=O)c1ccc(CN2CC(C(=O)Nc3ccc(C)nc3OC(F)F)(c3ccccc3C(C)C)C2)o1 [Ex 11-56, methyl 5-((3-((2-(difluoromethoxy)-6-methylpyridin-3-yl)carbamoyl)-3-(2-isopropylphenyl)azetidin-1-yl)methyl)furan-2-carboxylate] | 7.19
COc1cc(Cl)cnc1NC(=O)C1(c2ccccc2C(C)C)CNC1 [Ex 70, N-(5-chloro-3-methoxypyridin-2-yl)-3-(2-isopropylphenyl)azetidine-3-carboxamide] | 6.06
COC(=O)c1cnc(N2CC(C(=O)Nc3ccc(C)nc3OC(F)F)(c3ccccc3C(C)C)C2)cn1 [Ex 18-8, methyl 5-(3-((2-(difluoromethoxy)-6-methylpyridin-3-yl)carbamoyl)-3-(2-isopropylphenyl)azetidin-1-yl)pyrazine-2-carboxylate] | 8.00
N-(2-(difluoromethoxy)-6-methylpyridin-3-yl)-1-(2-(1-(2-hydroxyethyl)piperidin-4-yl)acetyl)-3-(2-isopropylphenyl)azetidine-3-carboxamide [Ex 12-140] | 6.91
Cc1ccc(NC(=O)C2(c3ccccc3C(C)C)CN(c3ncc(C#N)cn3)C2)c(OC(F)F)n1 [Ex 18-24, 1-(5-cyanopyrimidin-2-yl)-N-(2-(difluoromethoxy)-6-methylpyridin-3-yl)-3-(2-isopropylphenyl)azetidine-3-carboxamide] | 8.70
Cc1cnc(NC(=O)C2(c3ccccc3C(C)C)CN(C(=O)CC(C)(C)C(=O)O)C2)c(OC(F)F)c1 [Ex 79-6, 4-(3-((3-(difluoromethoxy)-5-methylpyridin-2-yl)carbamoyl)-3-(2-isopropylphenyl)azetidin-1-yl)-2,2-dimethyl-4-oxobutanoic acid] | 6.70
Cc1ccc(NC(=O)C2(c3ccccc3C(C)C)CCN(C(=O)CC3(O)COC3)CC2)c(OC(F)F)n1 [Ex 12-14, N-(2-(difluoromethoxy)-6-methylpyridin-3-yl)-1-(2-(3-hydroxyoxetan-3-yl)acetyl)-4-(2-isopropylphenyl)piperidine-4-carboxamide] | 8.15
Cc1ccc(NC(=O)C2(c3ccccc3C(C)C)CN(Cc3cccn3CC(=O)O)C2)c(OC(F)F)n1 [Ex 11-42, 2-(2-((3-((2-(difluoromethoxy)-6-methylpyridin-3-yl)carbamoyl)-3-(2-isopropylphenyl)azetidin-1-yl)methyl)-1H-pyrrol-1-yl)acetic acid] | 7.37
CC(C)c1ccccc1C1(C(=O)Nc2cccnc2OC(F)F)CNC1 [Ex 7, N-(2-(difluoromethoxy)pyridin-3-yl)-3-(2-isopropylphenyl)azetidine-3-carboxamide hydrochloride] | 6.38

Source: patent US12344597B2, “Alkoxy-substituted pyridinyl derivatives as LPA1 receptor antagonists and their use in the treatment of fibrosis” (IDORSIA PHARMACEUTICALS LTD, priority 2018, dated 2025)
